According to PubChem BioAssay AID1996:
Converted amounts (≈) assume the structure as drawn.

Conditions: buffer; pH 7.4; 200.0 µM
In the case of `CC1CCCCC1NC(=O)Cn1cnc2sccc2c1=O` (stereo not given), the solubility kinetic is reported as greater than 0.0458 mg/mL.
For `COc1ccccc1CNC(=O)CN1C(=O)NC2(CCOc3ccccc32)C1=O` (stereo not given), the solubility kinetic was 0.0079 mg/mL (≈ 20 µM).
`CCC(=O)c1ccc(OCCn2cnc3ccccc32)cc1.Cl` gave a solubility kinetic of 0.0437 mg/mL.
For `CC(=O)c1ccc(OCC(O)CNCc2ccc3c(c2)OCO3)cc1` (stereo not given), the solubility kinetic was 0.0462 mg/mL (≈ 135 µM).
`COC(=O)C1C(O)=C(C(C)=Nc2cccc3ccccc23)C(=O)CC1(C)C` (stereo not given) gave a solubility kinetic of 0.0203 mg/mL (≈ 55.6 µM).
`Cc1ccc(NC(=O)CN2C(=O)c3ccccc3C2=O)cc1` gave a solubility kinetic of 0.002 mg/mL (≈ 6.8 µM).
In the case of `Cc1cccc(NC(=O)CCC(=O)c2cccs2)n1`, the solubility kinetic is reported as greater than 0.0412 mg/mL.
`CC(=O)Nc1nc(-c2cc([N+](=O)[O-])cs2)cs1` gave a solubility kinetic of 0.0007 mg/mL (≈ 2.6 µM).
Work on `O=C(c1ccccc1)C(Nc1ccccn1)c1ccccc1` (stereo not given) yielded a solubility kinetic of 0.0278 mg/mL (≈ 96.4 µM).
Work on `CN(C)Cc1nc2ccccc2c(=O)n1CC#N` yielded a solubility kinetic greater than 0.0363 mg/mL.
`CC(C)=CC(=O)OCc1cc([N+](=O)[O-])cc2c1OCOC2` gave a solubility kinetic of 0.0033 mg/mL (≈ 11.3 µM).
`c1ccc(OCCCCN2CCCCC2)cc1` gave a solubility kinetic of 0.0296 mg/mL (≈ 127 µM).
With `CC(OC(=O)c1ccc2ncsc2c1)C(=O)N1CCCC1` (stereo not given) the solubility kinetic was 0.0394 mg/mL (≈ 129 µM).
In the case of `CCC(=O)OC1(Cc2ccc(CC)cc2)CC(C)N(C)CC1C.Cl` (stereo not given), the solubility kinetic is reported as 0.0469 mg/mL.
Work on `COc1cc(-c2c(C#N)c(N)nc3[nH]c(=S)[nH]c(=O)c23)ccc1O` yielded a solubility kinetic of 0.0117 mg/mL (≈ 34.3 µM).
With `COc1ccccc1NC(=O)NC1CCCCCCC1` the solubility kinetic was 0.0027 mg/mL (≈ 9.77 µM).
`CCN(CC)CCCN=C(N)N.O=S(=O)(O)O` showed a solubility kinetic of 0.024 mg/mL.
Work on `CC(NC(=O)CNC(=O)c1ccco1)c1ccccc1` (stereo not given) yielded a solubility kinetic greater than 0.0408 mg/mL.
Work on `CC(=O)Nc1ccc(NC(=O)C2C3CCC(C3)C2C(=O)O)cc1` (stereo not given) yielded a solubility kinetic greater than 0.0475 mg/mL.
Compound `O=C(CNCc1ccco1)Nc1cc(S(=O)(=O)N2CCOCC2)ccc1N1CCOCC1` has a solubility kinetic greater than 0.0697 mg/mL.
For `Cc1nc(CSc2nnc(N)s2)cs1`, the solubility kinetic was greater than 0.0367 mg/mL.
For `CCC(=O)N1CCN=C1SCc1cc(C)ccc1C`, the solubility kinetic was 0.0356 mg/mL (≈ 129 µM).
In the case of `CC(C)n1c(O)c(C=NCc2ccccc2)c(=O)[nH]c1=S`, the solubility kinetic is reported as 0.0196 mg/mL (≈ 64.6 µM).
With `Cc1cccc(COC(=O)C(Cc2ccccc2)NC(N)=O)c1` (stereo not given) the solubility kinetic was greater than 0.0469 mg/mL.
Compound `CC(=O)NC(C(=O)N1CCC(c2nc3ccccc3s2)CC1)C(C)C` (stereo not given) has a solubility kinetic of 0.0511 mg/mL (≈ 142 µM).
Work on `COc1cc(N)c(Cl)cc1C(=O)OCC(=O)Nc1ccc(N2CCOCC2)cc1` yielded a solubility kinetic of 0.0049 mg/mL (≈ 11.7 µM).
Work on `Nc1ccc(S(=O)(=O)N2CCCC2)cc1Cl` yielded a solubility kinetic greater than 0.0391 mg/mL.
For `N#CCc1ccc(NC(=O)Cn2c(=O)oc3ccccc32)cc1`, the solubility kinetic was 0.0067 mg/mL (≈ 21.8 µM).
In the case of `COc1ccc(-c2cc(-c3ccc(O)cc3)nc(N)c2C#N)cc1`, the solubility kinetic is reported as 0.0008 mg/mL (≈ 2.52 µM).
With `O=C(N/N=C/C1CCCCC1)c1ccccc1-n1cccc1` the solubility kinetic was greater than 0.0443 mg/mL.
`CC(C)(C)n1cnnc1Sc1ncccc1[N+](=O)[O-]` showed a solubility kinetic greater than 0.0419 mg/mL.
`C=CCNC(=O)/C(=C/c1cccc([N+](=O)[O-])c1)NC(=O)c1ccco1` showed a solubility kinetic of 0.0433 mg/mL (≈ 127 µM).
Work on `CCc1ccc(Nc2nc(C)cc(C)n2)cc1.Cl` yielded a solubility kinetic of 0.0184 mg/mL.
In the case of `O=C(NCCS(=O)(=O)NCC1CCCO1)c1ccccc1` (stereo not given), the solubility kinetic is reported as greater than 0.0469 mg/mL.
With `O=C1CCC2=C(CCCC2=O)N1` the solubility kinetic was 0.0242 mg/mL (≈ 146 µM).
With `CC(Oc1cccc(Cl)c1)C(=O)N1CCCN(C)CC1` (stereo not given) the solubility kinetic was greater than 0.0445 mg/mL.
With `CN1CCN(C(=O)/C(=C/c2ccccc2F)NC(=O)c2ccccc2)CC1` the solubility kinetic was greater than 0.0551 mg/mL.
For `COc1ccc(OCC(=O)O/N=C(\N)c2ccc(OC)cc2)cc1`, the solubility kinetic was 0.0012 mg/mL (≈ 3.63 µM).
`C/C(=N/NC(=O)CNC(=O)c1ccncc1)c1ccco1` showed a solubility kinetic greater than 0.0429 mg/mL.
In the case of `COc1cccc(OC(=O)N2CCOCC2)c1`, the solubility kinetic is reported as greater than 0.0356 mg/mL.
`COc1ccc(C(=O)/C=C/Nc2cc(C)ccn2)cc1` gave a solubility kinetic of 0.0058 mg/mL (≈ 21.6 µM).
`Cc1ccc(C(=O)C[n+]2cccc3cc(C)ccc32)cc1.[Br-]` showed a solubility kinetic of 0.0438 mg/mL.
In the case of `Cc1ccc2[nH]c3c(c2c1)CCCC3NCCO.Cl` (stereo not given), the solubility kinetic is reported as greater than 0.0421 mg/mL.
Work on `Cc1cc(C)c2nc(SCC(=O)Nc3cc(C)on3)c(C)cc2c1` yielded a solubility kinetic of 0.0003 mg/mL (≈ 0.879 µM).
With `CCC(Oc1ccccc1OC)C(=O)N1CC(=O)Nc2ccccc21` (stereo not given) the solubility kinetic was 0.043 mg/mL (≈ 126 µM).
With `O=C(CCS(=O)(=O)Cc1ccccc1F)NCc1ccccc1Cl` the solubility kinetic was 0.0043 mg/mL (≈ 11.6 µM).
`COc1ccc(NC(=O)CCc2nc3ccccc3[nH]2)cc1` gave a solubility kinetic of 0.0053 mg/mL (≈ 17.9 µM).
`CSc1cccc(N2C(=O)C3CCCN3C2=S)c1` (stereo not given) showed a solubility kinetic of 0.0362 mg/mL (≈ 130 µM).
For `COc1ccc(NC(=O)NCCCCc2ccccc2)cc1OC`, the solubility kinetic was 0.0006 mg/mL (≈ 1.83 µM).
`O=C(CSc1cccc2cccnc12)Nc1cc(C(=O)O)cc(C(=O)O)c1` gave a solubility kinetic of 0.052 mg/mL (≈ 136 µM).
For `Nc1ccc2ccc3cccc[n+]3c2c1.[O-][Cl+3]([O-])([O-])[O-]`, the solubility kinetic was greater than 0.0442 mg/mL.
For `Cc1ccccc1Cn1cnc2c(oc3ccccc32)c1=O`, the solubility kinetic was 0.0009 mg/mL (≈ 3.1 µM).
In the case of `O=C(Cc1c[nH]c2ccccc12)NCc1ccccc1F`, the solubility kinetic is reported as 0.0423 mg/mL (≈ 150 µM).
Compound `CCOc1ccc(S(=O)(=O)NC2CCCCCC2)cc1` has a solubility kinetic of less than 0.0006 mg/mL.
For `COc1ccc(-c2onc(C)c2-c2cscn2)c(O)c1`, the solubility kinetic was greater than 0.0432 mg/mL.
For `S=C(NCCCCc1ccccc1)NCc1ccccc1`, the solubility kinetic was 0.007 mg/mL (≈ 23.5 µM).
With `Cc1noc(C)c1S(=O)(=O)N(Cc1ccccc1)C(C)C` the solubility kinetic was 0.0365 mg/mL (≈ 118 µM).
`COc1ccc(CNc2ncnc3c2[nH]c2cc(OC)c(OC)cc23)cc1` gave a solubility kinetic of 0.0012 mg/mL (≈ 3.29 µM).
Compound `CCOC(=O)C1CCCN(CC(=O)Nc2cc(C)cc(C)c2)C1` (stereo not given) has a solubility kinetic of 0.0293 mg/mL (≈ 92 µM).
Compound `Cc1ccc(CNC(=O)N2CCN(S(=O)(=O)c3ccccc3)CC2)cc1` has a solubility kinetic of 0.0083 mg/mL (≈ 22.2 µM).
